pIC50: −log10 of the molar value. Converted amounts (≈) assume the structure as drawn.
Columns and labels:
[1] = Kpuu assay (in vivo brain-to-plasma unbound partition); conditions: brain (unbound) versus plasma (unbound); intravenous infusion 4 to 24 h; unbound brain/plasma ratio; read-out: Brain Kpu, u
MDR1 = MDR1 (Homo sapiens (Human), UniProt P08183); assay: in vitro; conditions: MDCK-MDR1
[2] = Kinetic solubility assay (CLND), pH 6.8; type: physicochemical; conditions: aqueous buffer, kinetic from dmso stock; potassium phosphate buffer pH 6.8, 2% DMSO, 24 hours at ambient temperature
IRAK4 = IRAK4 (Homo sapiens (Human), UniProt Q9NWZ3); assay: IRAK4 MSD biochemical assay (2-hour 1 mM ATP); conditions: 0.1 nM IRAK4, 1 mM ATP, 2 hour at room temperature
Sequence of IRAK4 (Q9NWZ3 whole entry): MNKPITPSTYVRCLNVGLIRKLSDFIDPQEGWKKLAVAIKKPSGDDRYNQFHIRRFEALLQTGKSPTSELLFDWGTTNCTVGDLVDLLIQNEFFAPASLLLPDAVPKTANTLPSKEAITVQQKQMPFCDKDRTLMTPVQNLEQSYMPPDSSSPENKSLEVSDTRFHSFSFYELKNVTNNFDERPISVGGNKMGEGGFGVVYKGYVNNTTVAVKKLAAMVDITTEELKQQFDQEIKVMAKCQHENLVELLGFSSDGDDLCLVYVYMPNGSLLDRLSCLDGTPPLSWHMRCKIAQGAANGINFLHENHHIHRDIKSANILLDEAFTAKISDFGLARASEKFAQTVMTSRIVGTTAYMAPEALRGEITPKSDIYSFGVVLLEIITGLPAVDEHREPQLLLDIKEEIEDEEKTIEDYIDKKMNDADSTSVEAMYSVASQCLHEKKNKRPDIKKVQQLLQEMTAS

Sequence of MDR1 (P08183 whole entry): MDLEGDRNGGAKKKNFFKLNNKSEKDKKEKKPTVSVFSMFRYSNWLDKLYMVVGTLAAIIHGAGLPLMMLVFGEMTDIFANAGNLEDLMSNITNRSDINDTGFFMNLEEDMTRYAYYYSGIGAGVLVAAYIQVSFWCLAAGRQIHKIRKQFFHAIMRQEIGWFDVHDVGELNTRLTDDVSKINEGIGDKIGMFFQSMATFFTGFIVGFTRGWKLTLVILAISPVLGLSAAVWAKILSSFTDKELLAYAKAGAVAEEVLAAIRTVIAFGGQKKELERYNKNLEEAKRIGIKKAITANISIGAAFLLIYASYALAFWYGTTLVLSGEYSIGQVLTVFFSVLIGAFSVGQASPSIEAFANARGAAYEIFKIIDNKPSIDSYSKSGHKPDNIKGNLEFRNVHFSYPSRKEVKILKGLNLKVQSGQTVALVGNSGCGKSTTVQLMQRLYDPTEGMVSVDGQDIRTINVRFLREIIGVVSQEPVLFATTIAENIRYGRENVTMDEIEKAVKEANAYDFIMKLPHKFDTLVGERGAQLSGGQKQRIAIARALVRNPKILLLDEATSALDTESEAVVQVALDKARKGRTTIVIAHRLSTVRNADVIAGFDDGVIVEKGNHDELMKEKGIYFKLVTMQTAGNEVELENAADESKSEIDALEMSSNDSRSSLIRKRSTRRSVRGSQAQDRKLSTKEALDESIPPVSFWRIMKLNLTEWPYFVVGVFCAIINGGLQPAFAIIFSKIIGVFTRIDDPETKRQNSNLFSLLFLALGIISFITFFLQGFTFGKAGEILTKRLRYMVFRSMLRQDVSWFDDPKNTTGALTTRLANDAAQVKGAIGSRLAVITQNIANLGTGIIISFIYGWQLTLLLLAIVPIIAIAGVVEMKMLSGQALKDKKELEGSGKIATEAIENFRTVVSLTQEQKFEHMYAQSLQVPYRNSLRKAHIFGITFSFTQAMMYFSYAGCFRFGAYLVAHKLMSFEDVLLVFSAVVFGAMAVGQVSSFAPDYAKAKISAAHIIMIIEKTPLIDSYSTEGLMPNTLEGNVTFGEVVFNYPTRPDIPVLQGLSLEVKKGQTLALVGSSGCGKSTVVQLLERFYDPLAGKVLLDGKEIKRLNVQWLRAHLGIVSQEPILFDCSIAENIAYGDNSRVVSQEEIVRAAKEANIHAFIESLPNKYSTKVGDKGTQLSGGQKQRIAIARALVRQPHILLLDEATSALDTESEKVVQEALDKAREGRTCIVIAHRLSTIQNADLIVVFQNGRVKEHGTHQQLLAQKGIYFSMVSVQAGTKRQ

Row | Kpuu (unbound brain-to-plasma partition coefficient) [1] | efflux ratio at 120 min, 1 μM (MDR1) | solubility kinetic at 24 h [2] | pIC50 (IRAK4) | SMILES
1 | 1.1 | 3.1 | 49.3 µg/mL (≈ 113 µM) |  | CC(C)Oc1cc2nc([C@@]34CC[C@@](C)(C3)OC4)cn2cc1C(=O)Nc1cccn(C)c1=O (single isomer, unassigned) [Comparator 3D, reference compound]
2 | 0.6 | 2 | 45.6 µg/mL (≈ 101 µM) |  | CC(C)Oc1cc2nc(C34CCC(C)(CC3)OC4)cn2cc1C(=O)Nc1cccn(C)c1=O [Comparator 5D, 7-isopropoxy-N-(1-methyl-2-oxo-1,2-dihydropyridin-3-yl)-2-(1-methyl-2-oxabicyclo[2.2.2]octan-4-yl)imidazo[1,2-a]pyridine-6-carboxamide, reference compound]
3 | 0.4 | 1.1 | 2.4 µg/mL (≈ 5.41 µM) |  | CC(C)Oc1nc2nc(C34COC(C)(C3)C4)cn2cc1C(=O)Nc1cccc(C(F)F)n1 [Comparator 2A, N-(6-(difluoromethyl)pyridin-2-yl)-7-isopropoxy-2-(1-methyl-2-oxabicyclo[2.1.1]hexan-4-yl)imidazo[1,2-a]pyrimidine-6-carboxamide, reference compound]
4 | 0.4 | 0.7 | 2 µg/mL (≈ 4.37 µM) |  | CC(C)Oc1nc2nc([C@@]34CC[C@@](C)(C3)OC4)cn2cc1C(=O)Nc1cccc(C(F)F)n1 (single isomer, unassigned) [Comparator 4A, reference compound]
5 | 0.4 | 2.2 | 39.6 µg/mL (≈ 93.5 µM) |  | CC(C)Oc1cc2nc(C34CCC(C)(CC3)OC4)cn2cc1C(=O)Nc1ccn(C)n1 [Comparator 5C, 7-isopropoxy-N-(1-methyl-1H-pyrazol-3-yl)-2-(1-methyl-2-oxabicyclo[2.2.2]octan-4-yl)imidazo[1,2-a]pyridine-6-carboxamide, reference compound]
6 | 0.3 |  |  |  | Cc1cnc2c(NC(=O)c3cn4cc(C56COC(C)(C5)C6)nc4nc3OC(C)C)cnn2c1 [Comparator 2B, 7-isopropoxy-2-(1-methyl-2-oxabicyclo[2.1.1]hexan-4-yl)-N-(6-methylpyrazolo[1,5-a]pyrimidin-3-yl)imidazo[1,2-a]pyrimidine-6-carboxamide, reference compound]
7 | 0.4 | 0.9 | 2.1 µg/mL (≈ 4.75 µM) |  | CC(C)Oc1cc2nc(C34COC(C)(C3)C4)cn2cc1C(=O)Nc1cccc(C(F)F)n1 [Comparator 1A, N-(6-(difluoromethyl)pyridin-2-yl)-7-isopropoxy-2-(1-methyl-2-oxabicyclo[2.1.1]hexan-4-yl)imidazo[1,2-a]pyridine-6-carboxamide, reference compound]
8 | 0.4 | 3 | 11.2 µg/mL (≈ 24.8 µM) |  | CC(C)Oc1nc2nc(C34CCC(C)(CC3)OC4)cn2cc1C(=O)Nc1cccn(C)c1=O [Comparator 6D, 7-isopropoxy-N-(-methyl-2-oxo-1,2-dihydropyridin-3-yl)-2-(1-methyl-2-oxabicyclo[2.2.2]octan-4-yl)imidazo[1,2-a]pyrimidine-6-carboxamide, reference compound]

The remaining lines, values behind:

Row | SMILES | Kpuu (unbound brain-to-plasma partition coefficient) [1] | efflux ratio at 120 min, 1 μM (MDR1) | solubility kinetic at 24 h [2] | pIC50 (IRAK4)
9 | COC[C@@]12CC[C@@](c3cn4cc(C(=O)Nc5cccn([C@H]6C[C@H]6F)c5=O)c(OC(C)C)nc4n3)(CO1)C2 (single isomer, unassigned) [Example 132] | 0.14 |  | 70.5 µg/mL (≈ 138 µM) | 
10 | COC[C@]12CC[C@](c3cn4cc(C(=O)Nc5cccn([C@H]6C[C@H]6F)c5=O)c(OC(C)C)nc4n3)(CO1)C2 (single isomer, unassigned) [Example 130] | 0.08 |  | 63.6 µg/mL (≈ 124 µM) | 
11 | CC(C)Oc1nc2nc([C@@]34CC[C@@](C)(C3)OC4)cn2cc1C(=O)Nc1cccn(C2CC2)c1=O (single isomer, unassigned) [Example 12] | 0.33 |  | 22.3 µg/mL (≈ 48.1 µM) | 
12 | CC(C)Oc1nc2nc(C34COC(C)(C3)C4)cn2cc1C(=O)Nc1cccn(C2CC2)c1=O [Example 18, N-(1-cyclopropyl-2-oxo-1,2-dihydropyridin-3-yl)-7-isopropoxy-2-(1-methyl-2-oxabicyclo[2.1.1]hexan-4-yl)imidazo[1,2-a]pyrimidine-6-carboxamide] | 0.7 |  |  | 
13 | O=C(Nc1cccn(C2CC2)c1=O)c1cn2cc(C34COC(CF)(C3)C4)nc2nc1OC1CCC1 [Example 33, 7-cyclobutoxy-N-(1-cyclopropyl-2-oxo-1,2-dihydropyridin-3-yl)-2-(1-(fluoromethyl)-2-oxabicyclo[2.1.1]hexan-4-yl)imidazo[1,2-a]pyrimidine-6-carboxamide] | 0.45 |  | 10.1 µg/mL (≈ 21.1 µM) | 
14 | CC(C)Oc1nc2nc(C34COC(C)(C3)C4)cn2cc1C(=O)Nc1cccn([C@H]2C[C@H]2F)c1=O [Example 159, N-(1-((1S,2R)-2-fluorocyclopropyl)-2-oxo-1,2-dihydropyridin-3-yl)-7-isopropoxy-2-(1-methyl-2-oxabicyclo[2.1.1]hexan-4-yl)imidazo[1,2-a]pyrimidine-6-carboxamide] | 0.28 |  |  | 
15 | CC(C)Oc1cc2nc(C34COC(C)(C3)C4)cn2cc1C(=O)Nc1cccn([C@H]2C[C@@H]2F)c1=O (single isomer, unassigned) [Example 155] | 0.36 |  | 35.8 µg/mL (≈ 76.7 µM) | 
16 | CC(C)Oc1nc2nc(C34COC(C)(C3)C4)cn2cc1C(=O)Nc1cccn([C@H]2C[C@H]2C)c1=O [Example 136, 7-isopropoxy-2-(1-methyl-2-oxabicyclo[2.1.1]hexan-4-yl)-N-(1-((1S,2R)-2-methylcyclopropyl)-2-oxo-1,2-dihydropyridin-3-yl)imidazo[1,2-a]pyrimidine-6-carboxamide] | 0.4 |  |  | 
17 | CC(C)Oc1nc2nc([C@@H]3CCCOC3)cn2cc1C(=O)Nc1cccn(C2CC2)c1=O (single isomer, unassigned) [Example 108] | 0.52 | 4 |  | 10.00
18 | CC(C)Oc1nc2nc(C34COC(CF)(C3)C4)cn2cc1C(=O)Nc1cccn(C2CC2)c1=O [Example 10, N-(1-cyclopropyl-2-oxo-1,2-dihydropyridin-3-yl)-2-(1-(fluoromethyl)-2-oxabicyclo[2.1.1]hexan-4-yl)-7-isopropoxyimidazo[1,2-a]pyrimidine-6-carboxamide] | 0.22 |  | 79.3 µg/mL (≈ 170 µM) | 
19 | CC(C)Oc1nc2nc([C@@]34CC[C@@](CF)(C3)OC4)cn2cc1C(=O)Nc1cccn(C2CC2)c1=O (single isomer, unassigned) [Example 46] | 1.81 |  | 9 µg/mL (≈ 18.7 µM) | 
20 | CC(C)Oc1cc2nc([C@]34CC[C@](C)(C3)OC4)cn2cc1C(=O)Nc1cccn(C2CC2F)c1=O (mixture of isomers) [Example 100, N-(1-(2-fluorocyclopropyl)-2-oxo-1,2-dihydropyridin-3-yl)-7-isopropoxy-2-((1R,4S)-1-methyl-2-oxabicyclo[2.2.1]heptan-4-yl)imidazo[1,2-a]pyridine-6-carboxamide] |  | 12.6 | 27.6 µg/mL | 9.22
21 | C[C@@H](CF)Oc1cc2nc(C34CCC(C)(C3)OC4)cn2cc1C(=O)Nc1cccn(C2CC2)c1=O (mixture of isomers) [Example 30, N-(1-cyclopropyl-2-oxo-1,2-dihydropyridin-3-yl)-7-(((S)-1-fluoropropan-2-yl)oxy)-2-(1-methyl-2-oxabicyclo[2.2.1]heptan-4-yl)imidazo[1,2-a]pyridine-6-carboxamide] |  | 11.1 | 46.5 µg/mL | 9.70
22 | C[C@H](CF)Oc1cc2nc(C34COC(C)(C3)C4)cn2cc1C(=O)Nc1cccn(C2CC2)c1=O [Example 29, (R)—N-(1-cyclopropyl-2-oxo-1,2-dihydropyridin-3-yl)-7-((1-fluoropropan-2-yl)oxy)-2-(1-methyl-2-oxabicyclo[2.1.1]hexan-4-yl)imidazo[1,2-a]pyridine-6-carboxamide] |  | 13.6 | 60.2 µg/mL (≈ 129 µM) | 9.22
23 | CC(C)Oc1cc2nc([C@]34CC[C@](C)(C3)OC4)cn2cc1C(=O)Nc1cccn([C@H]2C[C@H]2F)c1=O [Example 171, N-(1-((1S,2R)-2-fluorocyclopropyl)-2-oxo-1,2-dihydropyridin-3-yl)-7-isopropoxy-2-((1R,4S)-1-methyl-2-oxabicyclo[2.2.1]heptan-4-yl)imidazo[1,2-a]pyridine-6-carboxamide] |  | 9.8 | 47.9 µg/mL (≈ 99.7 µM) | 9.70
24 | CC[C@H](C)Oc1cc2nc([C@@]34CC[C@@](C)(C3)OC4)cn2cc1C(=O)Nc1cccn(C2CC2)c1=O (single isomer, unassigned) [Example 22] |  | 4.3 | 69 µg/mL (≈ 145 µM) | 9.52
25 | CC12CC(c3cn4cc(C(=O)Nc5cccn([C@@H]6C[C@@H]6F)c5=O)c(OC5CCC5)cc4n3)(CO1)C2 (racemic) [Example 85, (rac)-Cis-7-cyclobutoxy-N-(1-(2-fluorocyclopropyl)-2-oxo-1,2-dihydropyridin-3-yl)-2-(1-methyl-2-oxabicyclo[2.1.1]hexan-4-yl)imidazo[1,2-a]pyridine-6-carboxamide] |  | 7.7 | 44.5 µg/mL (≈ 93 µM) | 9.22

— patent publication US20240116922A1, “IMIDAZO[1,2-A]PYRIDINE DERIVATIVES AS IRAK4 INHIBITORS AND THEIR USE IN THE TREATMENT OF DISEASE” (BIOGEN MA INC., priority 2020, published 2024)
